Assay results reported in patent US20110281285A1, “Assay for Detecting Cathepsin K Activty in Bone, Cartilage and/or Soft Tissue” (priority 2009, published 2011).
Non-standard residues stand in square brackets, D forms with d. No end group written: not given here. Hyp = O=C(O)[C@@H]1C[C@@H](O)CN1

T1: Recombinant human cathepsin K (Homo sapiens, UniProt P43235)
T1 construct: processed to the mature form and purified as described previously; made in house; host or cells: Pichia pastoris
T1 sequence (P43235 115-329): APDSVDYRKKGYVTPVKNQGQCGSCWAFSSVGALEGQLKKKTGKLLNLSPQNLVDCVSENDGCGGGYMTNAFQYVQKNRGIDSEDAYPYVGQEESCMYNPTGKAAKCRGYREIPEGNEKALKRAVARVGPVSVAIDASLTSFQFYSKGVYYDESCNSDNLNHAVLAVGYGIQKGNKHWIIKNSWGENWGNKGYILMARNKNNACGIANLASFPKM


Tests used:
[1] = system: antiserum R771; experiment: Competitive inhibition ELISA for neoepitope specificity of the antiserum; assay type: binding, rabbit; conditions: for competition by / binding of the antibody to competing synthetic peptide: competitive inhibition ELISA, FIG. 1A and B
Protocol: A direct enzyme-linked immunosorbent assay (ELISA) assay was used to determine the antibody titer. The antiserum with the highest titer was selected for use. Investigation of the neoepitope specificity of the antiserum was performed by competitive inhibition ELISA as described.^17 The percentage binding and percentage inhibition were calculated for each of the standard peptides and results were expressed on a molar basis.
(§1) Immulon™ 2 plates (VWR International, Montreal, Canada) were coated with the peptide-ovalbumin conjugate (prepared as described above for the hemocyanin conjugate) diluted in phosphate-buffered saline (PBS), pH 7.2, at 3 ng/well (50 μl/well), the optimum concentration as determined by checkerboard analyses. After overnight incubation at 4° C., the plate was washed three times with PBS-0.1% Tween™ 20 and blocked with 100 μl of PBS-1% bovine serum albumin (BSA), at room temperature for 30 minutes. Serial dilutions of the standard peptide containing the epitope that had been used for immunization were prepared and added at 50 μl/well in triplicate to round bottom polypropylene plates used as preincubation plates; the antiserum was diluted 1:12,000 (optimum dilution as determined by checkerboard analyses) in PBS-1% BSA, 0.1% Tween 20, pH 7.2, and added to the plates (50 μl/well). In the nonspecific binding wells 50 μl of PBS-1% BSA and 50 μl of PBS-1% BSA, 0.1% Tween 20 were added; the maximum binding wells contained 50 μl of the diluted antiserum and 50 μl of PBS-1% BSA. After 1 hour incubation at 37° C., 50 μl of each preincubated well was transferred to the Immulon 2 flat-bottom, 96-well microtiter plates. The plates were incubated at 4° C. for 30 minutes and then washed three times with PBS-0.1% Tween 20. Alkaline phosphatase-conjugated goat antirabbit IgG (Sigma, St. Louis, Mo.), diluted 1:1000 in PBS-1% BSA, 0.1% Tween 20 was then added to each well (50 μl/well). The plate was incubated for 1 hour at 37° C., washed three times with PBS-0.1% Tween 20, and once with distilled water. One 5 mg tablet of alkaline phosphatase substrate (Sigma) was dissolved in 10 ml of 8.9 mmol/L diethanolamine buffer, pH 9.8, and added to the plate (50 μl/well). The optical density (405 nm) was read after 1 hour incubation. The detection limit of the newly developed assay was 2.8 ng/ml and the coefficients of variation (% CV) of the intra-assays and inter-assays were <10%. The analytic recovery was 87.2 to 97.3% and the recovery rates for the serial dilution were 92 to 108%.

[2] = biological target: T2, α-chymotrypsin (Bos taurus, UniProt P00766); experiment: Treatment of immunizing peptide with α-chymotrypsin; conditions: 50 ng/ml immunizing peptide solution
T2 construct: purchased Sigma
Protocol: The content of C2K and C2C neoepitopes in cartilage were determined by extraction with α-chymotrypsin (Sigma). This degrades denatured but not intact triple helical collagen, to solubilize the collagen neoepitopes that can then be assayed. Femoral condylar cartilages from 17 normal and 19 OA individuals were washed and digested with α-chymotrypsin, as previously described.^23 The digest was removed and stored at −20° C. until analyzed. To ensure that the cathepsin K-generated neoepitope is not cleaved by α-chymotrypsin, a separate digestion was first performed by treating a 50 ng/ml immunizing peptide solution with α-chymotrypsin as described above. […] The concentration of the neoepitope released from the cartilage in the α-chymotrypsin digests was expressed as pmol of neoepitope/mg wet wt of cartilage (based on the molecular weights of the two neoepitope sequences used as standards in the ELISA assays: 717.8 Da for the C2K neoepitope and 972 Da for C2C).

[3] = biological target: T1, Recombinant human cathepsin K; experiment: Digestion of human Col II with cathepsin K, C2K neoepitope by inhibition ELISA; assay type: biochemical; conditions: pH 7.0, 2 μmol/L cathepsin K, peak at 48 hours, versus absence of chondroitin sulfate (FIG. 4)
Protocol: as §1, with “Alkaline phosphatase-conjugated goat antirabbit IgG (Sigma, St. Louis, Mo.), diluted 1:1000 in PBS-1% BSA, 0.1% Tween 20 was then added to each well (50 μl/well). The plate was incubated for 1 hour at 37° C., washed three times with PBS-0.1% Tween 20, and once with distilled water. One 5 mg tablet of alkaline phosphatase substrate (Sigma) was dissolved in 10 ml of 8.9 mmol/L diethanolamine buffer, pH 9.8, and added to the plate (50 μl/well).” left out, “The detection limit of the newly developed assay was 2.8 ng/ml and the coefficients of variation (% CV) of the intra-assays and inter-assays were <10%. The analytic recovery was 87.2 to 97.3% and the recovery rates for the serial dilution were 92 to 108%.” left out

[4] = biological target: antiserum R771 (rabbit polyclonal anti-C2K neoepitope antiserum); experiment: competitive inhibition ELISA: free peptide against plate-bound peptide-ovalbumin conjugate, antiserum R771 at 1:12,000

Molecule | competition by / binding of the antibody to competing synthetic peptide [1] | other results
(ii): one-residue extension of the immunizing peptide at the C terminus (CGEAGKPGK; listed as Homo sapiens) | negligible | –
(v): immunizing peptide with deletion of the alanine residue (CGEGKPG; listed as Homo sapiens) | negligible binding | –
(vi): immunizing peptide with glutamic acid and alanine residues inverted (CGAEGKPG; listed as Homo sapiens) | negligible binding | –
CGEAGKPG [immunizing peptide, N-terminal cysteine added] | – | IC50 ([1]; peptide alone as competitive antigen, antiserum R771 diluted 1:12,000, read-out: median inhibitory concentration (IC50) in ELISA inhibition assay): 45 nM; loss of epitope after α-chymotrypsin treatment [2]: No loss of epitope
chondroitin 4-sulfate [C4S] | – | amount of C2K neoepitope on addition to the digestion buffer [3]: significantly increased
chondroitin 6-sulfate [C6S] | – | amount of C2K neoepitope on addition to the digestion buffer [3]: significantly increased
peptide (iv): N-terminally truncated peptide, deletion of the G (CEAGKPG; listed as Homo sapiens) | some affinity | –
CGEAGKPG | – | IC50 [4]: 45 nM

Now from value to molecule, other results behind:

competition by / binding of the antibody to competing synthetic peptide [1] | Molecule | other results
negligible | (i): one-residue truncation of the immunizing peptide at the C terminus (CGEAGKP; listed as Homo sapiens) | –
reduced affinity | peptide iii: sequence similar to the immunizing peptide, except for the proline residue that was 4-hydroxylated (CGEAGK[Hyp]G) | –
